Target: Gastrin-releasing peptide receptor (Homo sapiens, UniProt P30550)
Experiment: BB2 Receptor Antagonistic Activity
Procedure: A BB2 receptor binding test was carried out using a membrane sample prepared from a human prostate cancer-derived PC-3 cell. The PC-3 cell was cultured using an RPMI-1640 medium containing 5% fetal bovine serum, and then a membrane sample was prepared by the following methods. The cells detached by a trypsin treatment were added with a 50 mM Tris-HCl buffer (pH 7.4, containing 0.2 mg/ml trypsin inhibitor and 0.2 mg/ml benzamidine), and homogenized by Polytron. The cell suspension was centrifuged at 1,500 rpm for 10 minutes, and the supernatant thus obtained was subjected to 1 hour of ultracentrifugation at 37,000×g. The precipitate was suspended in the aforementioned buffer to a concentration of 0.4 mg protein/ml, and stored at −80° C.The BB2 receptor binding test was carried out by the following method, and the receptor antagonistic activity of a compound to be tested was calculated. […] Non-specific binding was measured using 1 μM of bombesin. […] The radioactivity on the filter was measured using a microplate scintillation counter (Top Count, Perkin-Elmer Co., Ltd.).

Chain of Gastrin-releasing peptide receptor (P30550 whole entry): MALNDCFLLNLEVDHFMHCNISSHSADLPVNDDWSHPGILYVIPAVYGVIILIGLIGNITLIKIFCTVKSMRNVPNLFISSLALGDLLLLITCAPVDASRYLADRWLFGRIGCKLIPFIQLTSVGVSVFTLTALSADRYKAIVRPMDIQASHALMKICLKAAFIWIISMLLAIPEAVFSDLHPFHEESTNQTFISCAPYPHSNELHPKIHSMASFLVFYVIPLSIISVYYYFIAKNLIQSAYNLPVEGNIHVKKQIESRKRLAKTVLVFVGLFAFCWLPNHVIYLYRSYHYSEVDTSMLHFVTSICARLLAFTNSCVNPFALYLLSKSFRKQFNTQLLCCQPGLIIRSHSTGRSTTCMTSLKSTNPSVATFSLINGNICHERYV

IC50: 18.3 nM
SMILES: O=C(NCCc1ccccc1)[C@@H]1c2ccccc2C(=O)N([C@H](CO)c2ccccc2)[C@H]1c1ccc(Cl)cc1Cl [US10532048, Example 62]

From BindingDB's records for patent US10532048 (Seldar Pharma Inc., 2020)
